Test results from PubChem BioAssay AID2061108 (Research group of Professor Matthew Todd, School of …, 2025).
Activity calls are given as the source filed them. The rule behind the calls is not given here.

What was measured:
Assay in all cases: microbial growth inhibition plus red cell haemolysis – Idler compounds, first plate, PMBN-permeabilized strains, profiling panel (AID 2061108)
Set-up in all cases: haemolysis: dose or concentration left out as unconfirmed
[1] = system: M. avium growth inhibition, 10 uM; details: M. avium growth inhibition, 10 µM
[2] = system: A. baumannii ATCC 17978 + PMBN growth inhibition, 100 uM; details: A. baumannii plus PMBN growth inhibition, 100 µM; stronger effect = higher value
[3] = system: E. coli NCTC 12923 growth inhibition, 100 uM; details: E. coli NCTC 12923 growth inhibition, 100 µM; stronger effect = higher value
[4] = system: A. baumannii ATCC 17978 growth inhibition, 100 uM; details: S. aureus ATCC 9144 growth inhibition; measured here: A. baumannii ATCC 17978; at 100 µM; stronger effect = higher value
[5] = system: E. coli NCTC 12923 + PMBN growth inhibition, 100 uM; details: S. aureus ATCC 9144 growth inhibition; measured here: E. coli plus PMBN; at 100 µM; stronger effect = higher value
[6] = system: C. albicans NCPF 3281 growth inhibition, 100 uM; details: S. aureus ATCC 9144 growth inhibition; measured here: C. albicans NCPF 3281; at 100 µM; stronger effect = higher value
[7] = system: red blood cell haemolysis; details: stronger effect = higher value; dose or concentration not given here
[8] = system: M. abscessus growth inhibition, 10 uM; details: S. aureus ATCC 9144 growth inhibition; measured here: M. abscessus; at 10 µM
[9] = system: S. aureus ATCC 9144 growth inhibition, 100 uM; details: S. aureus ATCC 9144 growth inhibition; at 100 µM; stronger effect = higher value

Structure (SMILES) | inhibition [1] [%] | inhibition [2] [%] | inhibition [3] [%] | inhibition [4] [%] | inhibition [5] [%] | inhibition [6] [%] | haemolysis [7] [%] | inhibition [8] [%] | inhibition [9]
Cc1ccc(N2CN(CC(=O)Nc3ccccc3Cl)S(=O)(=O)c3cccnc32)cc1 | -1.53 | 4.43 | -45.3 | -6.75 | -25.9 | -124 | 0.453 | 0.131 | -17.7% (inactive)
CC(Nc1ccc2oc(=O)[nH]c2c1)C(=O)Nc1ccccc1C#N (stereo not drawn) | 0.0692 | 14.5 | -4.73 | -0.833 | -6.79 | 28 | 0.275 | -1.22 | 8.83% (inactive)
COc1cccc(C(=O)Nc2nc3cc(Cl)c(OC)cc3s2)c1 | 0.396 | 19.1 | -30.8 | -4.34 | -13.2 | -74.4 | 4.42 | -0.266 | 2.28% (inactive)
FC(F)Oc1ccc(-c2nnc3cncc(OCCCC(F)(F)F)n23)cc1 | -0.289 | 4.86 | -7.16 | -14.8 | -9.02 | -49.2 | 0.0506 | -0.237 | -9.47% (inactive)
O=C(O)c1cc(-c2ccco2)on1 | -0.19 | 19.4 | 1.89 | -3.73 | 3.29 | -23.7 | 0.22 | -0.23 | 20.4% (inactive)
COc1ccc(-c2nc(N3CCC(N(C)C)C3)c3cc(OC)c(OC)cc3n2)cc1 (stereo not drawn) | 3.41 | 39.9 | 6.35 | -3.73 | -11 | 2.3 | 0.312 | 0.735 | 10.4% (inactive)
COc1cc2nc(N3CCC(N(C)C)C3)nc(N3CCN(C(=O)OC(C)(C)C)CC3)c2cc1OC (stereo not drawn) | 3.78 | 29.6 | 2.57 | -7.35 | 10.1 | -73.8 | 0.172 | -0.0588 | 7.89% (inactive)
O=c1[nH]c(=O)c2cc(S(=O)(=O)Nc3cc(F)c(N4CCN(c5ccccn5)CC4)c(F)c3)ccc2[nH]1 | 1.7 | 24 | 0.946 | 4.58 | 9.51 | -115 | 0.458 | -0.0939 | 10.2% (inactive)
COc1ccc(-c2ccc(CNc3ccnc(S(=O)(=O)F)c3)s2)cc1 | -0.555 | 38 | 5.81 | 8.21 | 14.7 | 98.4 | 2.61 | -0.879 | 24.7%
Nc1ncnc2cc(-c3cccc(S(=O)(=O)NC(=O)C(N)Cc4ccccc4)c3)sc12 (stereo not drawn) | 11.7 | 3.19 | -49.3 | 1.55 | -18.8 | -49.9 | 0.0594 | -0.63 | -16.5% (inactive)
CN(C)C(=O)c1cncc(-c2cccc(C3(C#N)CC3)c2)c1 | 0.148 | 23.7 | -5 | 3.37 | -3.05 | -67.1 | 0.107 | -0.0258 | 4.91% (inactive)
CC1=CC(=O)C=C(C)C1=NOS(=O)(=O)c1ccc(Cl)cc1 | -0.499 | -8.84 | -42.6 | -15.4 | -20.5 | -1.74 | 0.0834 | -0.716 | 98.2%
